Measurements as given in patent US8410302B2, “Methoxyimino compounds and fungicide composition comprising same” (Kyung Nong Corporation, priority 2007, dated 2013).

Tests used:
Botrytis cinerae = assay: Fungicidal activity against cucumber gray mold rot (CGM) disease, control value; type: in vivo; conditions: for pest or weed control at 100 ppm: Botrytis, cucumber gray mold rot, read-out: CGM control value (C.V.)
Method: Botrytis cinerae, which was isolated from cucumber infected thereby, was inoculated on a potato agar medium (PEC) and cultured under a 12L/12D cycle at 25° C. for 15 days to form spore. The spores were scraped, filtered through a gauze and then suspended in Potato Dextrose broth at a concentration of 1×10^6 spore/ml. The spore suspension was sprayed on a cucumber plant having one leaf. The cucumber plant was held in a humidified room at 20° C. for 3 days. L.A. on a leaf was measured to calculate a C.V.

Puccinia recondita = assay: Fungicidal activity against wheat leaf rust (WLR) disease, control value; type: in vivo; conditions: for pest or weed control at 2 ppm / pest or weed control at 10 ppm / pest or weed control at 50 ppm / pest or weed control at 100 ppm: wheat leaf rust, read-out: WLR control value (C.V.)
Erysiphae graminis = assay: Fungicidal activity against barley powdery mildew (BPM) disease, control value; type: in vivo; conditions: for pest or weed control at 2 ppm / pest or weed control at 10 ppm / pest or weed control at 50 ppm / pest or weed control at 100 ppm: Hordeum vulgare, 168 h, barley powdery mildew, read-out: BPM control value (C.V.)
Rhizoctonia solani AG-1 = assay: Fungicidal activity against rice sheath blight (RSB) disease, control value; conditions: for pest or weed control at 100 ppm / pest or weed control at 2 ppm / pest or weed control at 10 ppm / pest or weed control at 50 ppm: Rhizoctonia solani, AG1, in Oryza sativa, read-out: RSB control value (C.V.)
Phytophthora infestans = assay: whole plant or invertebrate; type: in vivo; conditions: for pest or weed control at 2 ppm / pest or weed control at 10 ppm / pest or weed control at 50 ppm / pest or weed control at 100 ppm: Phytophthora infestans, in Solanum lycopersicum, read-out: TLB control value (C.V.)
[1] = system: Pyricularia oryzae Carvara KA301; assay: whole plant or invertebrate; type: in vivo; conditions: for pest or weed control at 2 ppm / pest or weed control at 10 ppm / pest or weed control at 50 ppm / pest or weed control at 100 ppm: Pyricularia oryzae, read-out: RCB control value (C.V.)

`CO/C=C(/C(=O)OC)c1ccccc1Oc1cc(Oc2ccccc2C#N)ncn1` [Azoxystrobin, reference compound] was tested, and the “CGM control value (C.V.)” value (Botrytis cinerae; 50 ppm) was 40%, the “WLR control value (C.V.)” value (Puccinia recondita; 0.4 ppm) was 95% and the “WLR control value (C.V.)” value (Puccinia recondita; 2 ppm) was 100%. The “WLR control value (C.V.)” value (Puccinia recondita; 10 ppm) was 100%, the “WLR control value (C.V.)” value (Puccinia recondita; 50 ppm) was 100% and the “BPM control value (C.V.)” value (Erysiphae graminis; 0.4 ppm) was 95%. For the same molecule, the “BPM control value (C.V.)” value (Erysiphae graminis; 2 ppm) was 100%, the “BPM control value (C.V.)” value (Erysiphae graminis; 10 ppm) was 100% and the “BPM control value (C.V.)” value (Erysiphae graminis; 50 ppm) was 100%. The “RSB control value (C.V.)” value (Rhizoctonia solani AG-1; 0.4 ppm) was 67%, the “RSB control value (C.V.)” value (Rhizoctonia solani AG-1; 2 ppm) was 98% and the “RSB control value (C.V.)” value (Rhizoctonia solani AG-1; 10 ppm) was 100%. For the same molecule, the “RSB control value (C.V.)” value (Rhizoctonia solani AG-1; 50 ppm) was 100%, the “TLB control value (C.V.)” value (Phytophthora infestans; 0.4 ppm) was 50% and the “TLB control value (C.V.)” value (Phytophthora infestans; 2 ppm) was 90%. The “TLB control value (C.V.)” value (Phytophthora infestans; 10 ppm) was 98%, the “TLB control value (C.V.)” value (Phytophthora infestans; 50 ppm) was 100% and the “RCB control value (C.V.)” value ([1]; 0.4 ppm) was 30%. The “RCB control value (C.V.)” value ([1]; 2 ppm) was 90%, the “RCB control value (C.V.)” value ([1]; 10 ppm) was 100% and the “RCB control value (C.V.)” value ([1]; 50 ppm) was 100%.

In the case of `CO/N=C(/C(=O)OC)c1ccccc1COc1cccc(C=C(Cl)Cl)c1` [Example 1, methyl-(E)-2-(2-((3-(2,2-dichlorovinyl)phenoxy)methyl)phenyl)-2-methoxyiminoacetate], the pest or weed control at 100 ppm (Botrytis cinerae) is reported as 29%, the pest or weed control at 2 ppm (Puccinia recondita; 2 ppm) is reported as 98% and the pest or weed control at 10 ppm (Puccinia recondita; 10 ppm) is reported as 100%. It also gave a pest or weed control at 50 ppm (Puccinia recondita; 50 ppm) of 100%, a pest or weed control at 100 ppm (Puccinia recondita) of 100% and a pest or weed control at 2 ppm (Erysiphae graminis; 2 ppm) of 100%. For the same molecule, the pest or weed control at 10 ppm (Erysiphae graminis; 10 ppm) was 100%, the pest or weed control at 50 ppm (Erysiphae graminis; 50 ppm) was 100% and the pest or weed control at 100 ppm (Erysiphae graminis) was 100%. It also gave a pest or weed control at 100 ppm (Rhizoctonia solani AG-1) of 45%, a pest or weed control at 2 ppm (Phytophthora infestans) of 80% and a pest or weed control at 10 ppm (Phytophthora infestans) of 92%. For the same molecule, the pest or weed control at 50 ppm (Phytophthora infestans) was 100%, the pest or weed control at 100 ppm (Phytophthora infestans) was 100% and the pest or weed control at 2 ppm [1] was 13%. The pest or weed control at 10 ppm [1] was 50%, the pest or weed control at 50 ppm [1] was 92% and the pest or weed control at 100 ppm [1] was 100%.

`CNC(=O)/C(=N/OC)c1ccccc1COc1cccc(C=C(Cl)Cl)c1` [Example 2, (E)-2-(2-((3-(2,2-dichlorovinyl)phenoxy)methyl)phenyl)-2-methoxyimino-N-methylacetamide] was tested, and the pest or weed control at 100 ppm (Botrytis cinerae) was 34%, the pest or weed control at 2 ppm (Puccinia recondita; 2 ppm) was 30% and the pest or weed control at 10 ppm (Puccinia recondita; 10 ppm) was 90%. It also gave a pest or weed control at 50 ppm (Puccinia recondita; 50 ppm) of 98%, a pest or weed control at 100 ppm (Puccinia recondita) of 100% and a pest or weed control at 2 ppm (Erysiphae graminis; 2 ppm) of 100%. For the same molecule, the pest or weed control at 10 ppm (Erysiphae graminis; 10 ppm) was 100%, the pest or weed control at 50 ppm (Erysiphae graminis; 50 ppm) was 100% and the pest or weed control at 100 ppm (Erysiphae graminis) was 100%. The pest or weed control at 100 ppm (Rhizoctonia solani AG-1) was 32%, the pest or weed control at 2 ppm (Phytophthora infestans) was 98% and the pest or weed control at 10 ppm (Phytophthora infestans) was 100%. The pest or weed control at 50 ppm (Phytophthora infestans) was 100%, the pest or weed control at 100 ppm (Phytophthora infestans) was 100% and the pest or weed control at 2 ppm [1] was 90%. For the same molecule, the pest or weed control at 10 ppm [1] was 97%, the pest or weed control at 50 ppm [1] was 100% and the pest or weed control at 100 ppm [1] was 100%.

Work on `CO/N=C(/C(=O)OC)c1ccccc1COc1ccc(C=C(Cl)Cl)cc1` [Example 3, methyl-(E)-2-(2-((4-(2,2-dichlorovinyl)phenoxy)methyl)phenyl)-2-methoxyiminoacetate] yielded a pest or weed control at 100 ppm (Botrytis cinerae) of 50%, a pest or weed control at 2 ppm (Puccinia recondita; 2 ppm) of 40% and a pest or weed control at 10 ppm (Puccinia recondita; 10 ppm) of 90%. For the same molecule, the pest or weed control at 50 ppm (Puccinia recondita; 50 ppm) was 100%, the pest or weed control at 100 ppm (Puccinia recondita) was 100% and the pest or weed control at 2 ppm (Erysiphae graminis; 2 ppm) was 20%. It also gave a pest or weed control at 10 ppm (Erysiphae graminis; 10 ppm) of 50%, a pest or weed control at 50 ppm (Erysiphae graminis; 50 ppm) of 95% and a pest or weed control at 100 ppm (Erysiphae graminis) of 95%. It also gave a pest or weed control at 100 ppm (Rhizoctonia solani AG-1) of 60%, a pest or weed control at 2 ppm (Phytophthora infestans) of 0% and a pest or weed control at 10 ppm (Phytophthora infestans) of 35%. The pest or weed control at 50 ppm (Phytophthora infestans) was 95%, the pest or weed control at 100 ppm (Phytophthora infestans) was 98% and the pest or weed control at 2 ppm [1] was 30%. It also gave a pest or weed control at 10 ppm [1] of 90%, a pest or weed control at 50 ppm [1] of 100% and a pest or weed control at 100 ppm [1] of 100%.

With `CNC(=O)/C(=N/OC)c1ccccc1COc1ccc(C=C(Cl)Cl)cc1` [Example 4, (E)-2-(2-((4-(2,2-dichlorovinyl)phenoxy)methyl)phenyl)-2-methoxyimino-N-methylacetamide] the pest or weed control at 100 ppm (Botrytis cinerae) was 75%, the pest or weed control at 2 ppm (Puccinia recondita; 2 ppm) was 100% and the pest or weed control at 10 ppm (Puccinia recondita; 10 ppm) was 100%. For the same molecule, the pest or weed control at 50 ppm (Puccinia recondita; 50 ppm) was 100%, the pest or weed control at 100 ppm (Puccinia recondita) was 100% and the pest or weed control at 2 ppm (Erysiphae graminis; 2 ppm) was 100%. The pest or weed control at 10 ppm (Erysiphae graminis; 10 ppm) was 100%, the pest or weed control at 50 ppm (Erysiphae graminis; 50 ppm) was 100% and the pest or weed control at 100 ppm (Erysiphae graminis) was 100%. It also gave a pest or weed control at 2 ppm (Rhizoctonia solani AG-1) of 90%, a pest or weed control at 10 ppm (Rhizoctonia solani AG-1) of 98% and a pest or weed control at 50 ppm (Rhizoctonia solani AG-1) of 100%. It also gave a pest or weed control at 100 ppm (Rhizoctonia solani AG-1) of 100%, a pest or weed control at 2 ppm (Phytophthora infestans) of 100% and a pest or weed control at 10 ppm (Phytophthora infestans) of 100%. The pest or weed control at 50 ppm (Phytophthora infestans) was 100%, the pest or weed control at 100 ppm (Phytophthora infestans) was 100% and the pest or weed control at 2 ppm [1] was 100%. The pest or weed control at 10 ppm [1] was 100%, the pest or weed control at 50 ppm [1] was 100% and the pest or weed control at 100 ppm [1] was 100%.

`CO/N=C(/C(=O)OC)c1ccccc1COc1cccc(C=C(Br)Br)c1` [Example 5, methyl-(E)-2-(2-((3-(2,2-dibromovinyl)phenoxy)methyl)phenyl)-2-methoxyiminoacetate] gave a pest or weed control at 100 ppm (Botrytis cinerae) of 34%, a pest or weed control at 100 ppm (Puccinia recondita) of 92% and a pest or weed control at 100 ppm (Erysiphae graminis) of 87%. It also gave a pest or weed control at 100 ppm (Rhizoctonia solani AG-1) of 32%, a pest or weed control at 50 ppm (Phytophthora infestans) of 55% and a pest or weed control at 100 ppm (Phytophthora infestans) of 93%. It also gave a pest or weed control at 2 ppm [1] of 90%, a pest or weed control at 10 ppm [1] of 97% and a pest or weed control at 50 ppm [1] of 100%. For the same molecule, the pest or weed control at 100 ppm [1] was 100%.

Molecule `CNC(=O)/C(=N/OC)c1ccccc1COc1cccc(C=C(Br)Br)c1` [Example 6, (E)-2-(2-((3-(2,2-dibromovinyl)phenoxy)methyl)phenyl)-2-methoxyimino-N-methylacetamide] has a pest or weed control at 100 ppm (Botrytis cinerae) of 60%, a pest or weed control at 2 ppm (Puccinia recondita; 2 ppm) of 0% and a pest or weed control at 10 ppm (Puccinia recondita; 10 ppm) of 35%. The pest or weed control at 50 ppm (Puccinia recondita; 50 ppm) was 95%, the pest or weed control at 100 ppm (Puccinia recondita) was 98% and the pest or weed control at 2 ppm (Erysiphae graminis; 2 ppm) was 0%. For the same molecule, the pest or weed control at 10 ppm (Erysiphae graminis; 10 ppm) was 30%, the pest or weed control at 50 ppm (Erysiphae graminis; 50 ppm) was 90% and the pest or weed control at 100 ppm (Erysiphae graminis) was 97%. For the same molecule, the pest or weed control at 2 ppm (Rhizoctonia solani AG-1) was 30%, the pest or weed control at 10 ppm (Rhizoctonia solani AG-1) was 90% and the pest or weed control at 50 ppm (Rhizoctonia solani AG-1) was 100%. It also gave a pest or weed control at 100 ppm (Rhizoctonia solani AG-1) of 100%, a pest or weed control at 100 ppm (Phytophthora infestans) of 50% and a pest or weed control at 2 ppm [1] of 98%. For the same molecule, the pest or weed control at 10 ppm [1] was 100%, the pest or weed control at 50 ppm [1] was 100% and the pest or weed control at 100 ppm [1] was 100%.

With `CO/N=C(/C(=O)OC)c1ccccc1COc1ccc(C=C(Br)Br)cc1` [Example 7, methyl-(E)-2-(2-((4-(2,2-dibromovinyl)phenoxy)methyl)phenyl)-2-methoxyiminoacetate] the pest or weed control at 100 ppm (Botrytis cinerae) was 35%, the pest or weed control at 2 ppm (Puccinia recondita; 2 ppm) was 100% and the pest or weed control at 10 ppm (Puccinia recondita; 10 ppm) was 100%. It also gave a pest or weed control at 50 ppm (Puccinia recondita; 50 ppm) of 100%, a pest or weed control at 100 ppm (Puccinia recondita) of 100% and a pest or weed control at 2 ppm (Erysiphae graminis; 2 ppm) of 100%. The pest or weed control at 10 ppm (Erysiphae graminis; 10 ppm) was 100%, the pest or weed control at 50 ppm (Erysiphae graminis; 50 ppm) was 100% and the pest or weed control at 100 ppm (Erysiphae graminis) was 100%. For the same molecule, the pest or weed control at 2 ppm (Rhizoctonia solani AG-1) was 98%, the pest or weed control at 10 ppm (Rhizoctonia solani AG-1) was 100% and the pest or weed control at 50 ppm (Rhizoctonia solani AG-1) was 100%. It also gave a pest or weed control at 100 ppm (Rhizoctonia solani AG-1) of 100%, a pest or weed control at 2 ppm (Phytophthora infestans) of 100% and a pest or weed control at 10 ppm (Phytophthora infestans) of 100%. The pest or weed control at 50 ppm (Phytophthora infestans) was 100%, the pest or weed control at 100 ppm (Phytophthora infestans) was 100% and the pest or weed control at 2 ppm [1] was 100%. For the same molecule, the pest or weed control at 10 ppm [1] was 100%, the pest or weed control at 50 ppm [1] was 100% and the pest or weed control at 100 ppm [1] was 100%.
